The test system of series [1] is SARS-CoV-2. Type of series: in vivo, Syrian hamster. The following applies: for Activity in SARS-CoV-2 Hamster Model: doses, frequency, duration as in Table 1.
Series [2] is described as follows: Population PK model in human (digitized literature data). As to conditions: modelled from digitized data.
Series [3] has as its system SARS-CoV-2 in Vero cells.
In series [4] the test system is SARS-CoV-2 in Calu-3 cells.
Series [5] concerns SARS-CoV-2. The following applies: read-out: SARS-CoV-2 EC50, cited from earlier work.
The nature of series [6]: Plasma protein binding, human. As to conditions: human, plasma.
A short description of series [7]: Plasma protein binding, hamster. As to conditions: hamster, plasma.
In series [8] the test system is SARS-CoV-2 in Vero cells. The series can be described thus: microbe, parasite or virus in culture. The following applies: Severe acute respiratory syndrome coronavirus 2, Vero.
The subject of series [9] is SARS-CoV-2 in Calu-3 cells. As to the kind of experiment: microbe, parasite or virus in culture.
The nature of series [10]: Population PK model from satellite PK studies in hamster. The following applies: for CL/F, elimination clearance, population estimate (%RSE) / KA, absorption rate constant, population estimate (%RSE) / Q/F (Q1/F), inter-compartment clearance, population estimate (%RSE) / VC/F, central volume of distribution, population estimate (%RSE) / VP/F, peripheral volume of distribution, population estimate (%RSE): hamster of the study's median weight (80-131 g).

Series [11] in a line: Binding to antiviral assay medium by Rapid Equilibrium Dialysis. As to conditions: bovine, antiviral assay medium (DMEM with 2% v/v FCS). For orientation: Equilibrium dialysis compares concentrations on both sides of a semipermeable membrane.
For series [12] the following is noted: female, LGV Golden Syrian, hamster, in vivo.
Series [13] in a line: in vitro. As to conditions: African green monkey, Selectivity Index (Vero cells).
Series [14] is described as follows: in vitro. As to conditions: bovine.
Series [15] is described as follows: in vitro. As to conditions: hamster, plasma.
A short description of series [16]: in vitro. As to conditions: human, plasma.
The conditions of series [17]: cited from earlier work.
Setting [18] is: human, ref 68 (ambroxol), 71-73 (cepharanthine), 78 (fluvoxamine), 80 (molnupiravir).
[19] abbreviates: read-out: VERO cells Average IC50, With Pgp pump inhibitor, 2 μM CP-100356, * one replicate only.
Setting [20] is: read-out: VERO cells Average IC50, Without Pgp pump inhibitor, * one replicate only.
Where [21] appears, read: Severe acute respiratory syndrome coronavirus 2, Calu-3, read-out: Calu-3 cells Average IC50.
[22] abbreviates: human, ref 68 (ambroxol), 71-73 (cepharanthine).

Each structure is given as a SMILES string. Structures can show the parent of a compound that is named as a salt. Where two headings read alike, the source gives them in different places.

Turning to `Nc1c(Br)cc(Br)cc1CN[C@H]1CC[C@H](O)CC1` [Ambroxol, ambroxol], the “Activity in SARS-CoV-2 Hamster Model” value in series [1] was “No”. In addition, in [2] (setting [18]), the “CL/F, population estimate (%RSE)” value was 41.4 (3.0%) L/h. Further, in series [3], the “Activity In Vitro; Potency EC50 or IC50 < 10 µM; Vero Cells” value (“Activity In Vitro … Vero Cells” below) was “No (Potency EC50 or IC50 < 10 µM)”. Also, in series [4], the “Activity In Vitro; Potency EC50 or IC50 < 10 µM; Calu-3 Cells” value (“Activity In Vitro … Calu-3 Cells” below) is “No (Potency EC50 or IC50 < 10 µM)”. The EC50 (in general, the concentration at which the effect is half-maximal) in series [5] (host cell Vero E6, ref 47) was greater than 30 µM. For the same compound, the unbound share (fraction unbound) – broadly, the share of the substance not bound to proteins or other matrix – in series [6] amounted to 0.238; in series [7] it was 0.125; in [11] it was 0.954. Moreover, the IC50 in series [8] (setting [19]), in [8] (setting [20]) and in series [9] (setting [21]) was greater than 50 µM in each case. Further, the “Dose effect on F (power)” value in series [10] (covariate, hamster model) is 0.689 (11.1%). Also, the “CL/F, elimination clearance, population estimate (%RSE)” value (from here on “CL/F, elimination clearance … (%RSE)”) in series [10] was 4860 (11.3%) mL/h. Further, in [10], the “KA, absorption rate constant, population estimate (%RSE)” value (shortened to “KA, absorption rate constant … (%RSE)”) was 4.76 (15.1%) h-1. Moreover, the “Q/F (Q1/F), inter-compartment clearance, population estimate (%RSE)” value in [10] is recorded as 1180 (22.5%) mL/h. The “VC/F, central volume of distribution, population estimate (%RSE)” value (“VC/F, central volume … (%RSE)” for short) in series [10] is 12000 (10.9%) mL. Moreover, in series [10], the “VP/F, peripheral volume of distribution, population estimate (%RSE)” value is 16100 (31.6%) mL.
`COc1ccc2cc1Oc1ccc(cc1)C[C@H]1c3c(cc4c(c3Oc3cc5c(cc3OC)CCN(C)[C@@H]5C2)OCO4)CCN1C` [Cepharanthine, cepharanthine]: the “Activity in SARS-CoV-2 Hamster Model” value in [1] is “No”. Moreover, in series [2] (adult 70 kg), the “F, population estimate (%RSE)” value is on record as 0.116 (7.3%); the “KA, population estimate (%RSE)” value is recorded as 0.187 (11.0%) h-1; the “Q2/F, population estimate (%RSE)” value is reported as 131 (14.2%) L/h; the “VP2/F, population estimate (%RSE)” value is 438 (26.5%) L. In addition, in series [2] (setting [22]), the “Q/F (Q1/F), population estimate (%RSE)” value was 258 (7.6%) L/h and the “VP/F (VP1/F), population estimate (%RSE)” value is on record as 9190 (7.3%) L. In addition, in [2] (setting [18]), the “CL/F, population estimate (%RSE)” value was 74.4 (5.5%) L/h and the “VC/F, population estimate (%RSE)” value was 110 (10.8%) L. Moreover, in series [3], the “Activity In Vitro … Vero Cells” value is recorded as “Yes (Potency EC50 or IC50 < 10 µM)” and the “Toxicity observed (^T), Vero Cells” value is reported as “Yes ^T”. In addition, the “Activity In Vitro … Calu-3 Cells” value in series [4] was “No (Potency EC50 or IC50 < 10 µM)”. In series [12], the “CL/F, elimination clearance … (%RSE)” value is 804 (25.0) mL/h; the “KA, absorption rate constant … (%RSE)” value is reported as 1.52 (27.0) h-1; the “VC/F, central volume … (%RSE)” value was 66400 (12.5) mL. For the same compound, the EC50 in series [5] (host cell VeroE6/TMPRSS2) is 0.35 µM. Moreover, in series [13] (With Pgp pump inhibitor), the selectivity ratio is 17.2. Besides, in series [13] (Without Pgp pump inhibitor), the selectivity ratio came to 9.7. In [14], this compound gave a fraction unbound of 0.643. In series [15], this compound yielded a fraction unbound of 0.018. Moreover, the unbound share (fraction unbound) in series [16] worked out at 0.02. The concentration for half-maximal inhibition (IC50) (commonly the point on the concentration scale where inhibition reaches its midpoint) in series [8] (setting [19]) came out at 1.9 µM. Also, the IC50 in series [8] (setting [20]) was found to be 4.5 µM. Further, the IC50 in [9] (setting [21]) was greater than 50 µM.
With `CC(C)/N=c1\cc2n(-c3ccc(Cl)cc3)c3ccccc3nc-2cc1Nc1ccc(Cl)cc1` [Clofazimine, clofazimine], the “Activity in SARS-CoV-2 Hamster Model” value in [1] is “No”. In series [3], the “Activity In Vitro … Vero Cells” value was “Yes (Potency EC50 or IC50 < 10 µM)” and the “Toxicity observed (^T), Vero Cells” value is on record as “Yes ^T”. The “Activity In Vitro … Calu-3 Cells” value in series [4] is listed as “Yes (Potency EC50 or IC50 < 10 µM)”. For the same compound, in series [12], the “CL/F, elimination clearance … (%RSE)” value was 49.4 (7.2) mL/h and the “VC/F, central volume … (%RSE)” value is on record as 356 (11.9) mL. For the same compound, the half-maximal effective concentration (EC50) in series [5] (host cell Vero E6, ref 39) was 0.31 µM. Further, in series [13] (With Pgp pump inhibitor), the selectivity ratio was 208. The selectivity ratio in [13] (Without Pgp pump inhibitor) turned out to be 8.4. Besides, the free fraction (fraction unbound) in series [14] was determined as 0.003. This compound also gave a fraction unbound in [15] of less than 0.001. In [16], this compound came in with an unbound share (fraction unbound) of less than 0.001. For the same compound, the concentration for half-maximal inhibition (IC50) in [8] (read-out: VERO cells Average IC50, With Pgp pump inhibitor) amounted to 0.2 µM. For the same compound, in [8] (read-out: VERO cells Average IC50, Without Pgp pump inhibitor), the IC50 turned out to be 5.9 µM. Besides, the IC50 in series [9] (setting [21]) was determined as 8.4 µM. In [10] (covariate, hamster model), the “Dose effect on F (power)” value is on record as -0.109 (16.2) and the “Dose effect on KA (exp)” value is -0.0094 (20.4). In [10] (hamster 120 g), the “Q2/F, population estimate (%RSE)” value is 90.5 (20.6) mL/h and the “VP2/F, population estimate (%RSE)” value is 7390 (14.9) mL. Moreover, in series [10], the “KA, absorption rate constant … (%RSE)” value was 0.38 (11.0) h-1; the “Q/F (Q1/F), inter-compartment clearance, population estimate (%RSE)” value is recorded as 235 (10.4) mL/h; the “VP/F, peripheral volume of distribution, population estimate (%RSE)” value is reported as 2250 (28.0) mL.
Consider `COCCCC/C(=N\OCCN)c1ccc(C(F)(F)F)cc1` [Fluvoxamine maleate, fluvoxamine maleate], for which the “Activity in SARS-CoV-2 Hamster Model” value in series [1] was “No”. For the same compound, the “CL/F, population estimate (%RSE)” value in series [2] (setting [18]) is reported as 0.148 (3.0) L/h. Besides, the “Activity In Vitro … Vero Cells” value in series [3] is “No (key: Yes: Potency EC50 or IC50 < 10 µM; No: Potency EC50 or IC50 < 10 µM)”. The “Activity In Vitro … Calu-3 Cells” value in series [4] is “No (key: Yes: Potency EC50 or IC50 < 10 µM; No: Potency EC50 or IC50 < 10 µM)”. The free fraction (fraction unbound) in series [6] stood at 0.254; in [7], 0.281; in series [11], 0.771. Further, the figures for the half-inhibitory concentration (IC50) in [8] (setting [19]), in [8] (setting [20]) and in series [9] (setting [21]) were 32.6 µM, 26 µM and greater than 50 µM, respectively. The “Dose effect on F (power)” value in series [10] (covariate, hamster model) is on record as 1.21 (7.4). For the same compound, the “CL/F, elimination clearance … (%RSE)” value in [10] is given as 9500 (10.8) mL/h. Besides, the “VC/F, central volume … (%RSE)” value in series [10] is 16500 (12.8) mL.
For the compound `Cc1c(O)cccc1C(=O)N[C@@H](CSc1ccccc1)[C@H](O)CN1C[C@H]2CCCC[C@H]2C[C@H]1C(=O)NC(C)(C)C` [Nelfinavir, nelfinavir], the “Activity in SARS-CoV-2 Hamster Model” value in series [1] was “No ^e”. In [1] (hamster, in vivo), the “Lung inflammation and disease outcome” value is recorded as “diminution of lung inflammation”. In addition, the Virus load entry in [1] (hamster, in vivo) is listed as “no effect on viral load was detected”. Besides, the “Activity In Vitro … Vero Cells” value in series [3] is on record as “Yes (Potency EC50 or IC50 < 10 µM)”. Besides, the “Toxicity observed (^T), Vero Cells” value in series [3] is on record as “Yes ^T”. In addition, the “Activity In Vitro … Calu-3 Cells” value in series [4] is given as “Yes (Potency EC50 or IC50 < 10 µM)”. For the same compound, the EC50 in [5] (host cell Vero E6, ref 41) was 2.89 µM; in series [5] (host cell Vero, ref 40), 0.048 µM; in [5] (host cell VeroE6/TMPRSS2), 0.77 µM. Moreover, the figures for the selectivity ratio in [13] (With Pgp pump inhibitor) and in series [13] (Without Pgp pump inhibitor) were greater than 32 and greater than 9, respectively. The free fraction (fraction unbound) in series [6] was found to be 0.001; in [7], 0.001; in [11], 0.243. Also, the half-inhibitory concentration (IC50) in series [8] (setting [19]) was found to be 1.6 µM; in [8] (setting [20]), 5.5 µM; in [9] (setting [21]), 12.8 µM; in series [9] (Severe acute respiratory syndrome coronavirus 2, Calu-3, read-out: EC50 or IC50, Calu-3 Cells (borderline)), 13 µM. The “Dose effect on F (linear)” value in series [10] (covariate, hamster model) was 0.384 (32). Moreover, the “Dose effect on KA (linear)” value in series [10] (covariate, hamster model) was -0.801 (3.7). Further, the “CL/F, elimination clearance … (%RSE)” value in series [10] is recorded as 613 (4.2) mL/h. Also, the “VC/F, central volume … (%RSE)” value in series [10] is 547 (15.3) mL.
Regarding `CCC(CC)COC(=O)[C@H](C)N[P@](=O)(OC[C@H]1O[C@@](C#N)(c2ccc3c(N)ncnn23)[C@H](O)[C@@H]1O)Oc1ccccc1` [remdesivir], in series [1] (hamster, in vivo), the “Effect on lung infectious titers” value is listed as “no significant effect” and the “Effect on lung viral RNA yields” value was “little significant effect”. The “Plasma stability, half-life” value in [17] (genetically modified mouse (Cesc-/- knockout)) is recorded as “around 25 min”. Also, the “Plasma stability, half-life” value in series [17] (mice) was less than 5 min.

Values taken from paper PMC9460261, “Need for a Standardized Translational Drug Development Platform: Lessons Learned from the Repurposing of Drugs for COVID-19” (Microorganisms, 2022).
